{"source": "patent US20110230472A1", "about": "“RING-FUSED AZOLE DERIVATIVE HAVING PI3K-INHIBITING ACTIVITY” (Shionogi & Co., Ltd., priority 2008, published 2011)", "key": {"PI-3 kinase γ [1]": {"molecular_target": "T1, PI-3 kinase γ (Homo sapiens, UniProt P48736)", "T1 sequence (P48736 whole entry)": "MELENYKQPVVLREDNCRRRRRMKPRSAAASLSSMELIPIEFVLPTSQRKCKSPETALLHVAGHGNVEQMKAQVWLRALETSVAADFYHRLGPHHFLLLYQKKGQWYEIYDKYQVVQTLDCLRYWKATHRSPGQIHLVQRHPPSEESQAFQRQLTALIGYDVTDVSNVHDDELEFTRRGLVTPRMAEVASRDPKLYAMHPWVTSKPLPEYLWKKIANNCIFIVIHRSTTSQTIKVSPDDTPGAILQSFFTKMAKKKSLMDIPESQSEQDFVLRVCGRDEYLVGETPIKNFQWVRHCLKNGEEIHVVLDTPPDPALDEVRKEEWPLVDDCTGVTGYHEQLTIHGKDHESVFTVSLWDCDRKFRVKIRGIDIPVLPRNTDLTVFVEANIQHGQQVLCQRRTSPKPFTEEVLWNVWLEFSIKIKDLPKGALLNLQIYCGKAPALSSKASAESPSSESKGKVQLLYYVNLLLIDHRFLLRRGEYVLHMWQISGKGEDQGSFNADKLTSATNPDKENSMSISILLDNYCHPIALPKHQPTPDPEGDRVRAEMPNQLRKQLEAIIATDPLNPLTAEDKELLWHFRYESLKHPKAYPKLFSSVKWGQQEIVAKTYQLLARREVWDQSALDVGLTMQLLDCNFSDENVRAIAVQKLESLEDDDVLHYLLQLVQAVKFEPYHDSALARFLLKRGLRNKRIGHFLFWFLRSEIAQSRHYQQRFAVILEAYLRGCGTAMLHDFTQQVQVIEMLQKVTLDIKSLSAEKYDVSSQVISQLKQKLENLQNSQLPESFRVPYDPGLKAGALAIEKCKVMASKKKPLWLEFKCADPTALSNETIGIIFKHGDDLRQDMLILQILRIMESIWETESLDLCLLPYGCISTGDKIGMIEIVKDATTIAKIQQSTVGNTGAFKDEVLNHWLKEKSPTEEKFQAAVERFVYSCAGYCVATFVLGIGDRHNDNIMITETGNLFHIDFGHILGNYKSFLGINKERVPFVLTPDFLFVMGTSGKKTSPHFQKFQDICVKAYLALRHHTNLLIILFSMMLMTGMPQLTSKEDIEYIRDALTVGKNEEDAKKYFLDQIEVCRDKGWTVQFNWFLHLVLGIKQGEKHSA", "assay": "PI3Kγ inhibitory activity, PI3-kinase HTRF assay (inhibition ratio)", "type": "biochemical", "conditions": "0.5 h; PI3Kγ, compound at 10 μM", "in_short": "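Single-concentration inhibition ratio (50 or 10 μmol/L compound) versus no-compound (100%) and no-enzyme (0%) wells. Reaction: PI-3 kinase γ, PIP2, ATP, MgCl2/DTT, 30 min at RT after 10 min preincubation. Read-out: HTRF 665/620 nm after 18 h detection.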"}, "PI-3 kinase γ [2]": {"molecular_target": "T1, PI-3 kinase γ", "assay": "PI3Kγ inhibitory activity (Ki value), HTRF", "type": "biochemical", "conditions": "Ki=IC50/(1+10 μM ATP/Km)", "method": "The PI3Kγ inhibitory activity (Ki value) of a compound was evaluated according to the following procedure:\n5 μL of a compound solution containing 10% DMSO and 200 μmol/L of a compound was changed to 5 μL of a compound solution containing 10% DMSO and either 200, 64, 20, 6.4, 2, 0.64, or 0.20 μmol/L of the compound (optionally, this is diluted to a lower concentration). Using a method similar to the method for measuring PI3Kγ inhibitory activity, inhibition ratios were measured in the presence of the compound at 50, 16, 5, 1.6, 0.5, 0.16, and 0.05 μmol/L (optionally, a lower concentration). Then an IC50 value was calculated by a logistic approximation method or the linear regression method using two concentrations that across 50% inhibition. Separately, the ATP concentration in the reaction solution (40 μmol/L ATP, 10 mmol/L MgCl2, 5 mmol/L DTT) at the time of the start of a reaction in the absence of the compound was changed to 80, 40, 20, 10, 5, 2.5, 1.25, or 0.625 μmol/L. Then, HTRF ratios were measured by a similar method. The value obtained by subtracting the HTRF ratio at each ATP concentration from the HTRF ratio in the absence of PI-3 kinase γ was defined as the value obtained by multiplying reaction rate (v) at each ATP concentration with a constant. The Michaelis-Menten constant Km was then calculated by the Lineweaver-Burk plot method. The Ki value of a compound was calculated by the following formula.\nKi=IC50 value/(1+10 μM (test ATP concentration)/Km (μM))"}, "[3]": {"system": "AKT phosphorylation in human monocyte-like cell line THP-1", "assay": "AKT phosphorylation inhibitory activity in MCP-1-stimulated THP-1 cells (ELISA)", "type": "cell-based", "conditions": "1 μmol/L solution of each compound, MCP-1 stimulation, read-out: AKT phosphorylation inhibition ratio", "method": "(1) The AKT phosphorylation inhibitory activity of a compound was evaluated according to the following procedure. (2) Human monocyte-like cell line THP-1 was washed with RPMI-1640 media, incubated in the presence of 5% CO2 at 37° C. for 3 hours, washed with Hank's balanced salt solution (HBSS), adjusted to a cell concentration of 6.6×10^6/mL, and then used in an experiment. (3) 30 μL of the cell suspension and 60 μL of each compound solution containing 0.2% DMSO/HBSS were mixed and then preincubated at 37° C. for 5 minutes. 30 μL of HBSS containing 4 μg/mL of MCP-1 was added thereto and then incubated for 30 seconds at 37° C. (4) 30 μl of a cell lysate (20 mmol/L Tris-HCl (pH 7.5), 150 mmol/L NaCl, 1 mmol/L Na2EDTA, 1 mmol/L EGTA, 1% Triton, 2.5 mmol/L sodium pyrophosphate, 1 mmol/L β-glycerophosphate, 1 mmol/L Na3VO4, 1 μg/ml leupeptin, 50 nmol/L APMSF) was added thereto to lyse cells. (5) The amount of AKT phosphorylation in the cell lysate was measured by ELISA method. (6) Anti-phospho-Akt (Ser473) antibodies (clone 193H12, derived from a rabbit) were immobilized onto the solid phase of a micro well plate. 100 μL of the prepared cell lysate was added to the micro well plate, incubated for 2 hours at 37° C., and then washed four times with Phosphate Buffered Saline containing 0.05% Tween-20. (7) An anti-AKT1 antibody (clone 2H10, derived from a mouse) was added thereto, incubated for 1 hour at 37° C., washed similarly, and then reacted with an HRP-labeled anti-mouse IgG antibody. (8) After incubating at 37° C. for 30 minutes and then washing similarly, 100 μL of TMB (3,3′,5,5″-tetramethylbenzidine) was added thereto, followed by reacting at room temperature for 30 minutes. (9) 100 μL of 1 mol/L sulfuric acid was added to quench the color reaction and then the absorbance at 450 nm was measured. (10) A series of diluted cell lysates of a positive control (a sample in the absence of a compound) were used to prepare a calibration curve, the amount of AKT phosphorylation in a sample in the absence of MCP-1 was defined as 0% activity to calculate an inhibition ratio. The measurement was performed for a 1 μmol/L solution of each compound."}, "[4]": {"system": "Salmonella typhimurium TA98 line, TA100 line", "assay": "FAT test (mutagenicity)", "set-up": "key: When the mutagenicity is negative, the compound is shown as (−); When positive, the compound is shown as (+)", "conditions": "TA98 and TA100 lines; non-metabolism-activation and metabolism-activation conditions", "method": "20 μL of Salmonella enterica subsp. typhimurium (Salmonella typhimurium TA98 line, TA100 line) cryopreserved was inoculated to 10 mL of liquid nutrient medium (2.5% Oxoid nutrient broth No. 2) and then precultured at 37° C. for 10 hours with shaking. Regarding TA98 line, after 9 mL of a bacterial suspension was centrifuged (2000×g, 10 minutes) to remove the culture solution, the bacteria was suspended in 9 mL of Micro F buffer solution (K2HPO4: 3.5 g/L, KH2PO4: 1 g/L, (NH4)2SO4: 1 g/L, tri-sodium citric acid dihydrate: 0.25 g/L, MgSO4.7H2O: 0.1 g/L), and then added to 110 mL of Exposure media (Micro F buffer solution containing biotin: 8 μg/mL, histidine: 0.2 μg/mL, glucose: 8 mg/mL). Regarding TA 100 line, 120 mL of Exposure media was added to 3.16 mL of the bacterial suspension to prepare a test bacterial suspension. 12 μL of a solution of a test substance in DMSO (diluted eight times in a common ratio of 2 from the maximum dose of 50 mg/mL); 12 μL of DMSO as a negative control; 50 μg/mL 4-nitroquinoline-1-oxide solution in DMSO for TA98 line or 0.25 μg/mL 2-(2-furyl)-3-(5-nitro-2-furyl)acrylamide solution in DMSO as a positive control for TA 100 line in the case of a non-metabolism-activation condition; 12 μL of 40 μg/mL 2-aminoanthracene solution in DMSO for TA98 line or 20 μg/mL of 2-aminoanthracene solution in DMSO for TA100 line in the case of a metabolism-activation condition; were each mixed with 588 μL of the test bacterial suspension (in the case of a metabolism activation condition, a mixed solution of 498 μL of the test bacterial suspension and 90 μL S9 mix) and then cultured at 37° C. at 90 minutes with shaking. 460 μL of the bacterial suspension to which a test substance was exposed was mixed with 230 μL of Indicator media (a Micro F buffer solution containing 8 μg/mL biotin, 0.2 μg/mL histidine, 8 mg/mL glucose, and 37.5 μg/mL bromocresol purple). 50 μL thereof was dispensed to microplate 48 wells/dose and then statically cultured at 37° C. for 3 days. In a well containing bacteria which obtained proliferation potency by mutation of the amino acid (histidine) synthetase gene, the change of pH caused the color change from purple to yellow. Thus, in 48 wells per dose, the number of the bacteria-proliferation wells in which the color changed to yellow was counted, compared with a group of negative controls, and then evaluated. When the mutagenicity is negative, the compound is shown as (−). When positive, the compound is shown as (+)."}}, "data": [{"smiles": "COc1cc(N2CCc3nc(NC(=O)NCCC(=O)N4CCCCC4)sc3C2)nc(OC)n1", "note": "[Compound I-266]", "values": [{"measurement": "inhibition at 10 µM", "setting": "PI-3 kinase γ [1]", "value": "≥ 95", "unit": "%"}, {"measurement": "Ki", "setting": "PI-3 kinase γ [2]", "value": 36, "unit": "nM"}, {"measurement": "inhibition", "setting": "[3]", "value": "> 99.5", "unit": "%"}, {"measurement": "mutagenicity (FAT test)", "setting": "[4]", "value": "(−)"}]}]}
